Test results reported in patent publication US8916183B2, “Pesticidal compositions and processes related thereto” (priority 2012, dated 2014).
Where two headings read alike, the source gives them in different places.

What was measured:
[1] = test system: Beet Armyworm (BAW) (Spodoptera exigua); assay: Bioassay on beet armyworm (BAW), 128-well diet tray assay; format: in vivo; settings: Spodoptera exigua, read-out: % Mortality BAW 50 μg/cm^2
Procedure: (§1) Certain molecules disclosed in this document were tested against BAW and CEW using procedures described in the following examples. In the reporting of the results, the “BAW & CEW Rating Table” was used (See Table Section).
Bioassays on BAW (Spodoptera exigua)
Bioassays on BAW were conducted using a 128-well diet tray assay. […] Trays were covered with a clear self-adhesive cover and held at 25° C., 14:10 light-dark for five to seven days. Percent mortality was recorded for the larvae in each well; activity in the eight wells was then averaged. The results are indicated in the table entitled “Table 5: Biological Results” (See Table Section).

[2] = test system: Corn Earworm (CEW) (Helicoverpa zea); assay: Bioassay on corn earworm (CEW), 128-well diet tray assay; format: in vivo; settings: Helicoverpa zea, read-out: % Mortality CEW 50 μg/cm^2
Procedure: as §1
Bioassays on CEW (Helicoverpa zea)
Bioassays on CEW were conducted using a 128-well diet tray assay. […] Trays were covered with a clear self-adhesive cover and held at 25° C., 14:10 light-dark for five to seven days. Percent mortality was recorded for the larvae in each well; activity in the eight wells was then averaged. The results are indicated in the table entitled “Table 5: Biological Results” (See Table Section).

| Structure (SMILES) | mortality at 50 µg/cm2 ([1]; beet armyworm, 50 μg/cm^2) | mortality at 50 µg/cm2 ([2]; corn earworm, 50 μg/cm^2) | mortality at 50 µg/cm2 [1] | mortality at 50 µg/cm2 [2] |
| --- | --- | --- | --- | --- |
| COc1cc(C)c(N2C(=O)CSC2=NN=Cc2ccc(-c3ncn(-c4ccc(OC(F)(F)F)cc4)n3)cc2)c(C)c1 (stereo in doubt) [Compound 69C, (Z)-3-(4-methoxy-2,6-dimethylphenyl)-2-((E)-(4-(1-(4-(trifluoromethoxy)phenyl)-1H-1,2,4-triazol-3-yl)benzylidene)hydrazono)thiazolidin-4-one] | 50 to 100% | 50 to 100% | – | – |
| O=C1CCS/C(=N\N=C\c2ccc(-c3ncn(-c4ccc(OC(F)(F)F)cc4)n3)cc2)N1c1c(F)cccc1F [Compound 226C] | 50 to 100% | 50 to 100% | – | – |
| COc1ccc(N2C(=O)CS/C2=N\N=C\c2ccc(-c3ncn(-c4ccc(OC(F)(F)F)cc4)n3)cc2)cc1 [Compound 115C] | 0 to 50% | 0% | – | – |
| CC(C)c1ccccc1N1/C(=N/N=C/c2ccc(-c3ncn(-c4ccc(OC(F)(F)F)cc4)n3)cc2)SCC1(O)C(F)(F)F (racemic) [Compound 246C] | 50 to 100% | 50 to 100% | – | – |
| CC1S/C(=N\N=C\c2ccc(-c3ncn(-c4ccc(OC(F)(F)F)cc4)n3)cc2)N(c2c(Cl)cccc2Cl)C1=O (centres unmarked) [Compound 129C] | 50 to 100% | 50 to 100% | – | – |
| CCC1CS/C(=N\N=C\c2ccc(-c3ncn(-c4ccc(OC(F)(F)F)cc4)n3)cc2)N1c1ccccc1C (centres unmarked) [Compound 166C] | 50 to 100% | 50 to 100% | – | – |
| Cc1cc(C)c(N2/C(=N/N=C/c3ccc(-c4ncn(-c5ccc(OC(F)(F)F)cc5)n4)cc3)SCCC2C)c(C)c1 (centres unmarked) [Compound 218C] | 50 to 100% | 50 to 100% | – | – |
| CC1CS/C(=N\N=C\c2ccc(-c3ncn(-c4ccc(OC(F)(F)F)cc4)n3)cc2)N1c1c(F)cccc1F (centres unmarked) [Compound 159C] | 50 to 100% | 50 to 100% | – | – |
| O=C1CS/C(=N\N=C\c2ccc(-c3ncn(-c4ccc(OC(F)(F)F)cc4)n3)cc2)N1c1ccccc1OC(F)F [Compound 126C] | 50 to 100% | 50 to 100% | – | – |
| COc1cc(C)c(N2C(=O)CS/C2=N\N=C\c2ccc(-c3ncn(-c4ccc(OC(F)(F)F)cc4)n3)cc2)c(C)n1 [Compound 101C] | 50 to 100% | 50 to 100% | – | – |
| FC(F)(F)Oc1ccc(-n2cnc(-c3ccc(/C=N/N=C4\SCCN4c4ccccc4-c4ccccc4)cc3)n2)cc1 [Compound 144C] | 50 to 100% | 50 to 100% | – | – |
| CCC1CS/C(=N\N=C\c2ccc(-c3ncn(-c4ccc(OC(F)(F)F)cc4)n3)cc2)N1c1c(C)cccc1Cl (centres unmarked) [Compound 167C] | 50 to 100% | 50 to 100% | – | – |
| CC(C)c1ccccc1N1C(=O)CS/C1=N\N=C\c1ccc(-c2ncn(-c3ccc(C(F)(F)F)cc3)n2)cc1 [Compound 120C] | 50 to 100% | 50 to 100% | – | – |
| O=C1CS/C(=N\N=C\c2ccc(-c3ncn(-c4ccc(OC(F)(F)F)cc4)n3)cc2)N1c1ccccc1OC(F)(F)F [Compound 124C] | 50 to 100% | 50 to 100% | – | – |
| Cc1cccc(C)c1/N=C(/N/N=C/c1ccc(-c2ncn(-c3ccc(OC(F)(F)F)cc3)n2)cc1)SCC(=O)NC[C@@H]1CCCN(C(=O)OC(C)(C)C)C1 [Compound 56C, (S)-tert-butyl 3-((2-((Z)-(2,6-dimethylphenylimino)-((E)-2-(4-(1-(4-(trifluoromethoxy)phenyl)-1H-1,2,4-triazol-3-yl)benzylidene)hydrazinyl)-methylthio)acetamido)methyl)piperidine-1-carboxylate] | 50 to 100% | 50 to 100% | – | – |
| CC1(O)CS/C(=N\N=C\c2ccc(-c3ncn(-c4ccc(OC(F)(F)F)cc4)n3)cc2)N1c1ccccc1C1CCCC1 (centres unmarked) [Compound 249C] | 50 to 100% | 50 to 100% | – | – |
| CCc1cccc(C)c1N1C(=O)CCS/C1=N\N=C\c1ccc(-c2ncn(-c3ccc(OC(F)(F)F)cc3)n2)cc1 [Compound 225C] | 50 to 100% | 50 to 100% | – | – |
| CCC(C)c1ccccc1N1C(=O)CCS/C1=N\N=C\c1ccc(-c2ncn(-c3ccc(OC(F)(F)F)cc3)n2)cc1 (centres unmarked) [Compound 230C] | 50 to 100% | 50 to 100% | – | – |
| Cc1cc(C)c(N2/C(=N/N=C/c3ccc(-c4ncn(-c5ccc(OC(F)(F)F)cc5)n4)cc3)SCC2C)c(C)c1 (centres unmarked) [Compound 161C] | 50 to 100% | 50 to 100% | – | – |

| Structure (SMILES) | mortality at 50 µg/cm2 ([1]; beet armyworm, 50 μg/cm^2) | mortality at 50 µg/cm2 ([2]; corn earworm, 50 μg/cm^2) | mortality at 50 µg/cm2 [1] | mortality at 50 µg/cm2 [2] |
| --- | --- | --- | --- | --- |
| COc1cccc(N2C(=O)CS/C2=N\N=C\c2ccc(-c3ncn(-c4ccc(OC(F)(F)F)cc4)n3)cc2)c1 [Compound 91C] | 0% | 0% | – | – |
| C/C(=N\N=C1/SCC(=O)N1c1ccccc1CC(C)C)c1ccc(-c2ncn(-c3ccc(OC(F)(F)F)cc3)n2)cc1 [Compound 122C] | 50 to 100% | 50 to 100% | – | – |
| COC(=O)C1CC(c2ccc(/C=N/N=C3\SCC(=O)N3c3c(Cl)cccc3Cl)cc2)=NN1c1ccc(OC(F)(F)F)cc1 (centres unmarked) [Compound 109C] | 50 to 100% | 50 to 100% | – | – |
| O=C1CCS/C(=N\N=C\c2ccc(-c3ncn(-c4ccc(OC(F)(F)F)cc4)n3)cc2)N1c1ccccc1OC(F)F [Compound 233C] | 50 to 100% | 50 to 100% | – | – |
| CC(F)(F)Oc1ccccc1N1C(=O)CCS/C1=N\N=C\c1ccc(-c2ncn(-c3ccc(OC(F)(F)F)cc3)n2)cc1 [Compound 229C] | 50 to 100% | 50 to 100% | – | – |
| Cc1cs/c(=N\N=C\c2ccc(-c3ncn(-c4ccc(OC(F)(F)F)cc4)n3)cc2)n1-c1ccccc1OC(F)(F)F [Compound 170C] | 50 to 100% | 50 to 100% | – | – |
| COc1ccc(/N=C(/N/N=C/c2ccc(-c3ncn(-c4ccc(OC(F)(F)C(F)(F)F)cc4)n3)cc2)SCC(=O)O)c(C)c1 [Compound 50C] | 50 to 100% | 50 to 100% | – | – |
| Cc1cs/c(=N\N=C\c2ccc(-c3ncn(-c4ccc(OC(F)(F)F)cc4)n3)cc2)n1-c1c(F)cccc1F [Compound 171C] | 50 to 100% | 50 to 100% | – | – |
| Cc1cccc(Cl)c1N1C(=O)CCS/C1=N\N=C\c1ccc(-c2ncn(-c3ccc(OC(F)(F)F)cc3)n2)cc1 [Compound 227C] | 50 to 100% | 50 to 100% | – | – |
| CCC(C)c1ccccc1N1/C(=N/N=C/c2ccc(-c3ncn(-c4ccc(OC(F)(F)F)cc4)n3)cc2)SCC1C (centres unmarked) [Compound 163C] | 50 to 100% | 50 to 100% | – | – |
| Cc1cccc(C)c1N1C(=O)CS/C1=N\N=C\c1ccc(-c2ncn(-c3ccc(OC(F)(F)C(F)(F)F)cc3)n2)cc1 [Compound 100C] | 50 to 100% | 50 to 100% | – | – |
| CCOC(=O)c1ccc(N2CCCS/C2=N\N=C\c2ccc(-c3ncn(-c4ccc(OC(F)(F)F)cc4)n3)cc2)cc1 [Compound 207C] | 0% | 0% | – | – |
| CC(C)c1ccccc1N1CCS/C1=N\N=C\c1ccc(-c2ncn(-c3ccc(C(F)(F)F)cc3)n2)cc1 [Compound 134C] | 50 to 100% | 50 to 100% | – | – |
| CC1CCS/C(=N\N=C\c2ccc(-c3ncn(-c4ccc(OC(F)(F)F)cc4)n3)cc2)N1c1ccccc1OC(F)(F)F (centres unmarked) [Compound 216C] | 50 to 100% | 50 to 100% | – | – |
| COc1cc(C)c(/N=C(/N/N=C/c2ccc(-c3ncn(-c4ccc(OC(F)(F)F)cc4)n3)cc2)SCC(=O)O)c(C)c1 [Compound 48C] | 50 to 100% | 50 to 100% | – | – |
| CC1(O)CS/C(=N\c2c(Cl)cccc2C(F)(F)F)N1/N=C/c1ccc(-c2ncn(-c3ccc(OC(F)(F)F)cc3)n2)cc1 (centres unmarked) [Compound 241C, (Z)-2-((2-chloro-6-(trifluoromethyl)phenyl)imino)-4-methyl-3-((E)-(4-(1-(4-(trifluoromethoxy)phenyl)-1H-1,2,4-triazol-3-yl)benzylidene)amino)thiazolidin-4-ol] | 50 to 100% | 50 to 100% | – | – |
| COc1cc(C)c(/N=C(\N/N=C/c2ccc(-c3ncn(-c4ccc(C(F)(F)F)cc4)n3)cc2)SCOC(=O)CNC(=O)OCc2ccccc2)c(C)c1 [Compound 45C] | – | – | 50 to 100% | 50 to 100% |
| CC1CCS/C(=N\N=C\c2ccc(-c3ncn(-c4ccc(OC(F)(F)F)cc4)n3)cc2)N1c1ccccc1OC(F)F (centres unmarked) [Compound 221C] | 50 to 100% | 50 to 100% | – | – |
